Experimental data published in PubChem BioAssay AID1259407 (Chemical Carcinogenesis Research Information System (CCRIS), 2018).
Active and inactive are the calls of the source. How the calls were made is not given here.

Tested on: CCRIS mutagenicity, Ames/micronucleus/aberration tests
Assay: CCRIS mutagenicity studies
[1] = Test System: AMES SALMONELLA TYPHIMURIUM, Strain/Indicator: TA98, Metabolic Activation: NONE, Method: PREINCUBATION
[2] = Test System: AMES SALMONELLA TYPHIMURIUM, Strain/Indicator: TA98, Metabolic Activation: NONE, Method: STANDARD PLATE
[3] = Test System: AMES SALMONELLA TYPHIMURIUM, Strain/Indicator: TA100, Metabolic Activation: NONE, Method: PREINCUBATION
[4] = Test System: AMES SALMONELLA TYPHIMURIUM, Strain/Indicator: TA100, Metabolic Activation: NONE, Method: STANDARD PLATE

Measured: mutagenic call

COc1cc([N+](=O)[O-])ccc1N=NC(C(C)=O)C(=O)Nc1ccccc1OC (stereo unspecified)
inactive: Test System: AMES SALMONELLA TYPHIMURIUM, Strain/Indicator: TA97, Metabolic Activation: HAMSTER, LIVER, S-9, AROCLOR 1254 (10%), Method: PREINCUBATION inactive; negative | Test System: AMES SALMONELLA TYPHIMURIUM, Strain/Indicator: TA97, Metabolic Activation: HAMSTER, LIVER, S-9, AROCLOR 1254 (30%), Method: PREINCUBATION inactive; negative | Test System: AMES SALMONELLA TYPHIMURIUM, Strain/Indicator: TA97, Metabolic Activation: NONE, Method: PREINCUBATION inactive; negative | Test System: AMES SALMONELLA TYPHIMURIUM, Strain/Indicator: TA97, Metabolic Activation: RAT, LIVER, S-9, AROCLOR 1254 (10%), Method: PREINCUBATION inactive; negative | Test System: AMES SALMONELLA TYPHIMURIUM, Strain/Indicator: TA97, Metabolic Activation: RAT, LIVER, S-9, AROCLOR 1254 (30%), Method: PREINCUBATION inactive; negative | Test System: AMES SALMONELLA TYPHIMURIUM, Strain/Indicator: TA98, Metabolic Activation: HAMSTER, LIVER, S-9, AROCLOR 1254 (10%), Method: PREINCUBATION inactive; negative | Test System: AMES SALMONELLA TYPHIMURIUM, Strain/Indicator: TA98, Metabolic Activation: HAMSTER, LIVER, S-9, AROCLOR 1254 (30%), Method: PREINCUBATION inactive; negative | Test System: AMES SALMONELLA TYPHIMURIUM, Strain/Indicator: TA98, Metabolic Activation: HAMSTER, LIVER, S-9, AROCLOR 1254, Method: STANDARD PLATE inactive; negative | [1] inactive; negative | [2] inactive; negative | Test System: AMES SALMONELLA TYPHIMURIUM, Strain/Indicator: TA98, Metabolic Activation: RAT, LIVER, S-9, AROCLOR 1254 (10%), Method: PREINCUBATION inactive; negative | Test System: AMES SALMONELLA TYPHIMURIUM, Strain/Indicator: TA98, Metabolic Activation: RAT, LIVER, S-9, AROCLOR 1254 (30%), Method: PREINCUBATION inactive; negative | Test System: AMES SALMONELLA TYPHIMURIUM, Strain/Indicator: TA98, Metabolic Activation: RAT, LIVER, S-9, AROCLOR 1254, Method: STANDARD PLATE inactive; negative | Test System: AMES SALMONELLA TYPHIMURIUM, Strain/Indicator: TA100, Metabolic Activation: HAMSTER, LIVER, S-9, AROCLOR 1254 (10%), Method: PREINCUBATION inactive; negative | Test System: AMES SALMONELLA TYPHIMURIUM, Strain/Indicator: TA100, Metabolic Activation: HAMSTER, LIVER, S-9, AROCLOR 1254 (30%), Method: PREINCUBATION inactive; negative | Test System: AMES SALMONELLA TYPHIMURIUM, Strain/Indicator: TA100, Metabolic Activation: HAMSTER, LIVER, S-9, AROCLOR 1254, Method: STANDARD PLATE inactive; negative | [3] inactive; negative | [4] inactive; negative | Test System: AMES SALMONELLA TYPHIMURIUM, Strain/Indicator: TA100, Metabolic Activation: RAT, LIVER, S-9, AROCLOR 1254 (10%), Method: PREINCUBATION inactive; negative | Test System: AMES SALMONELLA TYPHIMURIUM, Strain/Indicator: TA100, Metabolic Activation: RAT, LIVER, S-9, AROCLOR 1254 (30%), Method: PREINCUBATION inactive; negative | Test System: AMES SALMONELLA TYPHIMURIUM, Strain/Indicator: TA100, Metabolic Activation: RAT, LIVER, S-9, AROCLOR 1254, Method: STANDARD PLATE inactive; negative | Test System: AMES SALMONELLA TYPHIMURIUM, Strain/Indicator: TA1535, Metabolic Activation: HAMSTER, LIVER, S-9, AROCLOR 1254 (10%), Method: PREINCUBATION inactive; negative | Test System: AMES SALMONELLA TYPHIMURIUM, Strain/Indicator: TA1535, Metabolic Activation: HAMSTER, LIVER, S-9, AROCLOR 1254 (30%), Method: PREINCUBATION inactive; negative | Test System: AMES SALMONELLA TYPHIMURIUM, Strain/Indicator: TA1535, Metabolic Activation: HAMSTER, LIVER, S-9, AROCLOR 1254, Method: STANDARD PLATE inactive; negative | Test System: AMES SALMONELLA TYPHIMURIUM, Strain/Indicator: TA1535, Metabolic Activation: NONE, Method: STANDARD PLATE inactive; negative | Test System: AMES SALMONELLA TYPHIMURIUM, Strain/Indicator: TA1535, Metabolic Activation: RAT, LIVER, S-9, AROCLOR 1254 (10%), Method: PREINCUBATION inactive; negative | Test System: AMES SALMONELLA TYPHIMURIUM, Strain/Indicator: TA1535, Metabolic Activation: RAT, LIVER, S-9, AROCLOR 1254 (30%), Method: PREINCUBATION inactive; negative | Test System: AMES SALMONELLA TYPHIMURIUM, Strain/Indicator: TA1535, Metabolic Activation: RAT, LIVER, S-9, AROCLOR 1254, Method: STANDARD PLATE inactive; negative | Test System: AMES SALMONELLA TYPHIMURIUM, Strain/Indicator: TA1537, Metabolic Activation: HAMSTER, LIVER, S-9, AROCLOR 1254, Method: STANDARD PLATE inactive; negative | Test System: AMES SALMONELLA TYPHIMURIUM, Strain/Indicator: TA1537, Metabolic Activation: NONE, Method: STANDARD PLATE inactive; negative | Test System: AMES SALMONELLA TYPHIMURIUM, Strain/Indicator: TA1537, Metabolic Activation: RAT, LIVER, S-9, AROCLOR 1254, Method: STANDARD PLATE inactive; negative | Test System: AMES SALMONELLA TYPHIMURIUM, Strain/Indicator: TA1538, Metabolic Activation: HAMSTER, LIVER, S-9, AROCLOR 1254, Method: STANDARD PLATE inactive; negative | Test System: AMES SALMONELLA TYPHIMURIUM, Strain/Indicator: TA1538, Metabolic Activation: NONE, Method: STANDARD PLATE inactive; negative | Test System: AMES SALMONELLA TYPHIMURIUM, Strain/Indicator: TA1538, Metabolic Activation: RAT, LIVER, S-9, AROCLOR 1254, Method: STANDARD PLATE inactive; negative | Test System: MOUSE LYMPHOMA, Strain/Indicator: L5178Y (TK+/TK-), Metabolic Activation: NONE, Method: SUSPENSION/PLATE inactive; negative. reevaluation of results: negative | Test System: MOUSE LYMPHOMA, Strain/Indicator: L5178Y (TK+/TK-), Metabolic Activation: RAT, LIVER, S-9, AROCLOR 1254, Method: SUSPENSION/PLATE inactive; negative. reevaluation of results: negative

Cc1ccc(C=O)o1
inactive: [1] inactive; negative | [2] inactive; negative | Test System: AMES SALMONELLA TYPHIMURIUM, Strain/Indicator: TA98, Metabolic Activation: RAT, LIVER, S-9, AROCLOR 1254, Method: PREINCUBATION inactive; negative | Test System: AMES SALMONELLA TYPHIMURIUM, Strain/Indicator: TA98, Metabolic Activation: S-9, Method: STANDARD PLATE inactive; negative | [3] inactive; negative | [4] inactive; negative | Test System: AMES SALMONELLA TYPHIMURIUM, Strain/Indicator: TA100, Metabolic Activation: RAT, LIVER, S-9, AROCLOR 1254, Method: PREINCUBATION inactive; negative | Test System: AMES SALMONELLA TYPHIMURIUM, Strain/Indicator: TA100, Metabolic Activation: S-9, Method: STANDARD PLATE inactive; negative | Test System: AMES SALMONELLA TYPHIMURIUM, Strain/Indicator: TA102, Metabolic Activation: NONE, Method: PREINCUBATION inactive; negative | Test System: AMES SALMONELLA TYPHIMURIUM, Strain/Indicator: TA102, Metabolic Activation: RAT, LIVER, S-9, AROCLOR 1254, Method: PREINCUBATION inactive; negative
